Test results: PubChem BioAssay (NCI)
Where “and” joins values, the source holds several entries; their conditions need not be identical. Identical values can stand only once.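 48-hour exposure; five concentrations; linearly interpolated endpoints. Here, GI50 denotes the concentration required for 50% inhibition of growth. TGI: concentration producing complete growth inhibition.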

How the values were obtained:
Experiment in all cases: DTP human tumour cell line panel, 48 h
RPMI-8226 leukemia = test system: RPMI-8226 leukemia
SF-268 CNS = test system: SF-268 CNS
UO-31 renal = test system: UO-31 renal
SK-OV-3 ovarian = test system: SK-OV-3 ovarian
M14 melanoma = test system: M14 melanoma
OVCAR-8 ovarian = test system: OVCAR-8 ovarian
CCRF-CEM leukemia = test system: CCRF-CEM leukemia
K-562 leukemia = test system: K-562 leukemia
MDA-MB-231 breast = test system: MDA-MB-231 breast
A498 renal = test system: A498 renal

SMILES | GI50 (RPMI-8226 leukemia) [µM] | TGI (RPMI-8226 leukemia) | GI50 (SF-268 CNS) [µM] | TGI (SF-268 CNS) | GI50 (UO-31 renal) [µM] | TGI (UO-31 renal) | GI50 (SK-OV-3 ovarian) | TGI (SK-OV-3 ovarian) | TGI (M14 melanoma) [µM] | GI50 (OVCAR-8 ovarian) [µM] | TGI (OVCAR-8 ovarian) | GI50 (CCRF-CEM leukemia) [µM] | TGI (CCRF-CEM leukemia) | GI50 (K-562 leukemia) [µM] | TGI (K-562 leukemia) | TGI (MDA-MB-231 breast) [µM] | GI50 (A498 renal) | GI50 (M14 melanoma) [µM] | GI50 (MDA-MB-231 breast) [µM] | TGI (A498 renal) [µM]
COc1ccc(/C=C\c2cc(OC)c(OC)c(OC)c2)c(O)c1O | 0.0635 | 20.9 µM and 9.14 µM | 0.249 | 37.8 µM and 32 µM | 6.76 | 33.7 µM and > 77.8 µM | 0.586 µM and 1.68 µM | 15.1 µM and 48.3 µM | 9.95 | 0.0517 | 7.13 µM and 9.64 µM | 0.274 | 30.8 µM and 11.4 µM | 0.333 | 13.2 µM and 37.1 µM | 18.5 | 0.247 µM and 0.05 µM | – | – | –
COc1ccc2c(c1)N(CCO)C1=C(C(=O)OC1)C2c1ccccc1 (stereo unspecified) | 1.78 | > 50 µM | 2.64 | > 50 µM | 2.37 | > 50 µM | 1.9 µM | > 50 µM | 4.65 | 2.03 | > 50 µM | 1.91 | > 50 µM | 1.23 | > 50 µM | 41.7 | 0.841 µM | 1.4 | 5.99 | 3.11
O=C(NN1C(=O)CSC12CCCC2)C(O)c1ccccc1 (stereo unspecified) | > 100 | > 100 µM | > 100 | > 100 µM | > 100 | > 100 µM | > 100 µM | > 100 µM | > 100 | > 100 | > 100 µM | > 100 | > 100 µM | > 100 | > 100 µM | > 100 | > 100 µM | > 100 | > 100 | > 100
O=C1C(=O)N(c2cccc(C(F)(F)F)c2)C(=O)C(=O)C1c1nc2ccccc2s1 | – | > 100 µM | – | > 100 µM | – | > 100 µM | – | > 100 µM | > 100 | – | > 53.8 µM | – | 65.1 µM | – | > 100 µM | > 100 | – | – | – | > 100
NNC(=S)Nc1cccc(Cl)c1 | – | > 100 µM | – | > 100 µM | – | > 100 µM | – | > 100 µM | > 100 | – | > 100 µM | – | > 100 µM | – | > 100 µM | > 100 | – | – | – | > 100
CC(C)(C)c1ccc(O)c(CN(Cc2cc(C(C)(C)C)ccc2O)C2CCCCC2)c1 | – | 25.1 µM | – | > 53.9 µM | – | 99.9 µM | – | 47.8 µM | 28.4 | – | 42 µM | – | 99.9 µM | – | 27.9 µM | 30.4 | – | – | – | 31
CN1CCN(Cc2ccc(NC(=O)c3cncc(C#Cc4cnn5ccccc45)c3)cc2C(F)(F)F)CC1 | 0.57 | 1.82 µM | 1.05 | 2.54 µM | 1.17 | 3.39 µM | 1.51 µM | 4.61 µM | 1.39 | 1.22 | 4.68 µM | 0.202 | 1.67 µM | 0.005 | 3.16 µM | 3.05 | 0.821 µM | 0.576 | 0.608 | 1.89
COc1cc2ncn(-c3cc(OCc4ccccc4C(F)(F)F)c(C(C)=O)s3)c2cc1OC | > 25 | > 25 µM | > 25 | > 25 µM | > 25 | > 25 µM | > 25 µM | > 25 µM | > 25 | > 25 | > 25 µM | > 25 | > 25 µM | > 25 | > 25 µM | > 25 | 4.1 µM | > 25 | 24.2 | 17.2
CC(C)CCC(=O)[C@@H](C)[C@H]1[C@@H](OC2OCC(O)C(O)C2NS(C)(=O)=O)C[C@H]2[C@@H]3CC=C4C[C@@H](O)CC[C@]4(C)[C@H]3CC[C@]12C (stereo partly specified) | 0.12 | 0.419 µM | 1.25 | 6.99 µM | 0.782 | 2.12 µM | 1.27 µM | 5.04 µM | 1.58 | 7.63 | 37.2 µM | 0.424 | 2.47 µM | 1.37 | 5.55 µM | 8.65 | 0.724 µM | 0.512 | 2 | 1.7
CC[C@]12C=CCN3CC[C@@]4(c5ccc(OC)cc5N(C)[C@H]4[C@@](O)(C(=O)OC)[C@@H]1OC(=O)CCC(=O)N[C@H](Cc1c[nH]c4ccccc14)C(=O)OC)[C@@H]32 | 3.63 | 44.7 µM | 4.88 | 25.9 µM | 2.97 | 13.7 µM | 15.5 µM | 33.7 µM | > 100 | 7.78 | 35 µM | 3.34 | > 100 µM | 3.56 | > 100 µM | 9.54 | 9.29 µM | 4.06 | 2.83 | 30.8
CCOC(=O)c1csc(NC(=O)COc2cccc(/C=C3\CSc4ccccc4C3=O)c2)n1 | > 100 | > 100 µM | 0.204 | 0.502 µM | 0.145 | 0.286 µM | 13.1 µM | 25.9 µM | 4.18 | 1.59 | 6.97 µM | 0.472 | – | > 100 | > 100 µM | 19.1 | 12.1 µM | 1.86 | 3.87 | 24.5
CC(=O)NC(CCCCN(Cc1ccccc1)C(=O)N(CCCl)N=O)C(=O)NCc1ccccc1 (stereo unspecified) | – | 79 µM | – | 40.8 µM | – | 57.2 µM | – | > 76.3 µM | > 71.5 | – | 43.2 µM | – | > 84.3 µM | – | > 89.4 µM | 47.9 | – | – | – | > 100
